PMC3023143 (Nature, 2011)

How the values were obtained:
β1AR-m23 = test: Ligand efficacy at β1AR-m23; assay type: cell-based, turkey (Meleagris gallopavo); conditions: β1AR-m23, Supplementary Table 3
human β1AR = conditions: no reference given; cited from earlier work

In the case of `CC(CCc1ccc(O)cc1)NCCc1ccc(O)c(O)c1` (centres unmarked) [Dobutamine, dobutamine], the ligand efficacy class (β1AR-m23) is listed as “partial agonists” and the ligand efficacy class (human β1AR) is listed as “partial agonists”.
